The target of test [1] is T1, Recombinant human His-tagged Kat6a protein (amino acids 194-810) (Homo sapiens, UniProt Q92794).
T1 construct: Kat6a protein (amino acids 194-810); His
The test is described as follows: Kat6a activity assay (TR-FRET, acetylation of Histone-H4-derived peptide). The conditions noted are these: 60 mins at 22° C., 220 nM H4 peptide, 600 nM Acetyl Coenzyme A, read-out: KAT6A - DPF/HAT domain IC50 [mol/l] (arithmetic mean). In kind it is biochemical. In general terms: TR-FRET usually uses a lanthanide donor and a delayed reading to cut background.

Test [2] deals with ESR1 transcription in MVLN cells. Kind of test: MVLN reporter assay: repression of ESR1 transcription (luciferase signal). To be noted: Homo sapiens, MVLN, 24 h, luciferase signal after 24 h, read-out: MVLN reporter assay, IC50 [M] (arithmetic mean). In kind it is cell-based. Summed up: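 MVLN cells, expressing ER and stably carrying a vitellogenin A2 ERE-luciferase reporter, treated with compound in duplicate; luciferase read after 24 h with Steadylite plus. Cell density checked in parallel by Alamar Blue fluorescence (530/590 nm, 2 h) before the luciferase read.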

A further test relates to ZR-75-1 cells. Kind of test: ZR-75-1 proliferation assay. In kind it is cell-based. The conditions noted are these: Homo sapiens, ZR-75-1, 144 h, Alamar Blue, read-out: ZR75-1 proliferation assay, EC50 [M] (arithmetic mean). An excerpt:
(§1) For compound characterization cell survival assays were routinely run in two cell lines. ZR-75-1 is a breast carcinoma cell line containing a focal KAT6A amplification and high KAT6A protein expression. Proliferation of this cell line is inhibited upon treatment with KAT6A inhibitors. As a negative control cell line MDA-MB-436 were used. These cells carry a […] deletion of the KAT6A gene, have a low KAT6A protein expression and are not growth inhibited upon treatment with KAT6A inhibitors.
(§2) For measurements cell lines were plated at the below indicated concentration per […] in 96-well plates in a humidified incubator at 37° C. and 5% CO2.
ZR-75-1 (ATCC, CRL-1500; breast carcinoma); 3000 cells per well; culture medium: RPMI 1640 (Biochrom #FG 1215) medium containing 2.5% FBS (Biochrom #S0615).
(§3) Each sample was prepared as triplicate and rim wells were excluded. Plates were incubated at 37° C. and 5% CO2 for 144 h. Cell viability was measured by adding 10 μL of Alamar Blue Reagent (Invitrogen #DAL 1100) and plates were incubated for 2 h at 37° C. and 5% CO2. Fluorescence was measured at 590 nm wavelength with a Tecan Spark or Victor X3 MTP-Reader (PerkinElmer).
In general terms: Alamar Blue is a resazurin reagent that responds to reducing activity.

The next test has as its system LCLC97TM1. The test is described as follows: LCLC97TM1 proliferation assay. The conditions noted are these: Homo sapiens, LCLC-97TM1, LCLC97TM1; read-out: LCLC97TM1 proliferation assay; EC50 [M] (arithmetic mean). In kind it is cell-based.
The test system of another test is MDA-MB-436 cells. Kind of test: MDA-MB-436 proliferation assay (negative control cell line). In kind it is cell-based. To be noted: Homo sapiens, 144 h, Alamar Blue, read-out: MDA-MB-436 proliferation assay, EC50 [M] (arithmetic mean).
Source text: as §1, §2
MDA-MB-436 (CLS, 300278; breast adenocarcinoma); 3000 cells per well; culture medium: DMEM/Ham's F12 (Biochrom #FG 4815) medium containing 2.5% FBS (Biochrom #S0615).
as §3

T1 sequence (Q92794 194-810): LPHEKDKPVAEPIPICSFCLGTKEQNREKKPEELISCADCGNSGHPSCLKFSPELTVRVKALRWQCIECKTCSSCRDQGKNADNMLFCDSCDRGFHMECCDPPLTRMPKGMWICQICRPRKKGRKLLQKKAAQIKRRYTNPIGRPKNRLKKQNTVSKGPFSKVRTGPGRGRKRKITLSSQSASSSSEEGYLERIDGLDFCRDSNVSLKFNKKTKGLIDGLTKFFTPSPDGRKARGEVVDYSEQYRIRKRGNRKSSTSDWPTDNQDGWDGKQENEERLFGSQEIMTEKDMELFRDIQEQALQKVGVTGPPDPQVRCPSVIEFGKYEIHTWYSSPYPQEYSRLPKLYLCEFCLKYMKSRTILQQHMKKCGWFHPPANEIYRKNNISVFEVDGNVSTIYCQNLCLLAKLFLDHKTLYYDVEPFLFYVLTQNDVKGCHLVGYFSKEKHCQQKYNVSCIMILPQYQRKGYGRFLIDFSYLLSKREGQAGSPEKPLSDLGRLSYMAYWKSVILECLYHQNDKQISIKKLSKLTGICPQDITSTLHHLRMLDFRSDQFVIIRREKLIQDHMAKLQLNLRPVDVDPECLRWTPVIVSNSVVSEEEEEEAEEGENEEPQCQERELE

Consider `CC1(C)CCc2cccc(S(=O)(=O)NC(=O)c3cc4c(F)cc(N5CCC5)cc4o3)c2O1` [Example 80, 6-(Azetidin-1-yl)-N-(2,2-dimethyl-3,4-dihydro-2H-1-benzopyran-8-sulfonyl)-4-fluoro-1-benzofuran-2-carboxamide], for which the IC50 in test [1] came out at 0.0121 µM; in test [2], 7.27e-08 M. The figures for the EC50 with ZR-75-1 cells, in the test with LCLC97TM1 and in the test on MDA-MB-436 cells were 1.49e-07 M, 3.17e-07 M and greater than 2e-05 M, respectively.
Taken in the same sequence, the figures for `CCOc1ccccc1S(=O)(=O)NC(=O)c1cc2ccc(N3CC(F)(F)C3)cc2o1` [Example 118, 6-(3,3-Difluoroazetidin-1-yl)-N-(2-ethoxybenzene-1-sulfonyl)-1-benzofuran-2-carboxamide] were 1.99 µM, 1.2e-06 M, 2.46e-06 M, 2.72e-06 M and greater than 2e-05 M.
For `O=C(NS(=O)(=O)c1ccccc1-c1ccccc1)c1cc2ccc(N3CC(F)(F)C3)cc2o1` [Example 119, N-([1,1′-biphenyl]-2-sulfonyl)-6-(3,3-difluoroazetidin-1-yl)-1-benzofuran-2-carboxamide], the values for the IC50 in test [1] and in test [2] were 1.1 µM and 3.04e-06 M, respectively. In addition, the EC50 in the test on ZR-75-1 cells is 3.7e-06 M; in the test on LCLC97TM1, 1.46e-05 M; with MDA-MB-436 cells, greater than 2e-05 M.
Consider `CCOc1ccccc1S(=O)(=O)NC(=O)c1cc2ccc(N3CC4(COC4)C3)cc2o1` [Example 125, N-(2-ethoxybenzene-1-sulfonyl)-6-(2-oxa-6-azaspiro[3.3]heptan-6-yl)-1-benzofuran-2-carboxamide], for which the IC50 in test [1] is greater than 20 µM; in test [2], greater than 2e-05 M. Moreover, the EC50 with ZR-75-1 cells, with LCLC97TM1 and in the test with MDA-MB-436 cells was greater than 2e-05 M each time.
Take `O=C(NS(=O)(=O)c1cccc2ccc(Cl)nc12)c1cc2c(F)cc(N3CCC3)cc2o1` [Example 132, 6-(Azetidin-1-yl)-N-(2-chloroquinoline-8-sulfonyl)-4-fluoro-1-benzofuran-2-carboxamide]: the IC50 in test [1] turned out to be 0.0141 µM; in test [2] it was 5.41e-08 M. Moreover, the EC50 was found to be 1.08e-07 M with ZR-75-1 cells, 1.36e-07 M in the test with LCLC97TM1 and 1.22e-05 M in the test on MDA-MB-436 cells.
With `CCCOc1ccccc1S(=O)(=O)NC(=O)c1cc2c(F)cc(N3CCC3)cc2o1` [Example 133, 6-(Azetidin-1-yl)-4-fluoro-N-(2-propoxybenzene-1-sulfonyl)-1-benzofuran-2-carboxamide], the IC50 in test [1] was found to be 0.0218 µM; in test [2] it was 6.41e-08 M. Moreover, the EC50 is 1.61e-07 M with ZR-75-1 cells, 6.64e-07 M in the test on LCLC97TM1 and greater than 2e-05 M with MDA-MB-436 cells.
For the compound `Cc1ccc(OC(C)C)c(S(=O)(=O)NC(=O)c2cc3c(F)cc(N4CCC4)cc3o2)c1` [Example 134, 6-(Azetidin-1-yl)-4-fluoro-N-{5-methyl-2-[(propan-2-yl)oxy]benzene-1-sulfonyl}-1-benzofuran-2-carboxamide], the IC50 in test [1] is 0.0183 µM; in test [2] it was 7.44e-08 M. Further, the EC50 is 8.18e-08 M in the test with ZR-75-1 cells, 3.76e-07 M in the test with LCLC97TM1 and greater than 2e-05 M with MDA-MB-436 cells.
Take `CCOc1ccc(CC)cc1S(=O)(=O)NC(=O)c1cc2c(F)cc(N3CC(F)C3)cc2o1` [Example 153, N-(2-ethoxy-5-ethylbenzene-1-sulfonyl)-4-fluoro-6-(3-fluoroazetidin-1-yl)-1-benzofuran-2-carboxamide]: the IC50 in test [1] is 0.0105 µM; in test [2], 4.69e-08 M. The EC50 in the test with ZR-75-1 cells is 4.98e-08 M; in the test with LCLC97TM1, 1.6e-07 M; in the test with MDA-MB-436 cells, greater than 2e-05 M.
On the same counts, the results for `O=C(NS(=O)(=O)c1cccc2ccc(Cl)nc12)c1cc2c(F)cc(N3CC(F)C3)cc2o1` [Example 154, N-(2-Chloroquinoline-8-sulfonyl)-4-fluoro-6-(3-fluoroazetidin-1-yl)-1-benzofuran-2-carboxamide] are 0.0134 µM, 7.11e-08 M, 4.95e-08 M, 2.25e-07 M and greater than 2e-05 M.
On the same counts, the results for `CC(C)Oc1ccccc1S(=O)(=O)NC(=O)c1cc2c(F)cc(N3CC(F)C3)cc2o1` [Example 155, 4-Fluoro-6-(3-fluoroazetidin-1-yl)-N-{2-[(propan-2-yl)oxy]benzene-1-sulfonyl}-1-benzofuran-2-carboxamide] are 0.0367 µM, 7.14e-08 M, 7.48e-08 M, 4.28e-07 M and greater than 2e-05 M.
Taken in the same sequence, the figures for `COc1cc(C)ccc1S(=O)(=O)NC(=O)c1cc2c(F)cc(N3CCC3)cc2o1` [Example 156, 6-(Azetidin-1-yl)-4-fluoro-N-(2-methoxy-4-methylbenzene-1-sulfonyl)-1-benzofuran-2-carboxamide] were 0.0199 µM, 7.43e-08 M, 1.34e-07 M, 6.6e-07 M and greater than 2e-05 M.
Turning to `Cc1ccc(OC(C)C)c(S(=O)(=O)NC(=O)c2cc3c(F)cc(N4CC(F)C4)cc3o2)c1` [Example 157, 4-Fluoro-6-(3-fluoroazetidin-1-yl)-N-{5-methyl-2-[(propan-2-yl)oxy]benzene-1-sulfonyl}-1-benzofuran-2-carboxamide], the IC50 in test [1] was determined as 0.0373 µM; in test [2], 7.51e-08 M. Moreover, the EC50 in the test on ZR-75-1 cells was 1.1e-07 M; with LCLC97TM1, 7.07e-07 M; with MDA-MB-436 cells it was greater than 2e-05 M.
As to `CCc1ccc2cccc(S(=O)(=O)NC(=O)c3cc4c(F)cc(N5CCC5)cc4o3)c2n1` [Example 171, 6-(Azetidin-1-yl)-N-(2-ethylquinoline-8-sulfonyl)-4-fluoro-1-benzofuran-2-carboxamide], the IC50 in test [1] stood at 0.0157 µM; in test [2] it was 6.68e-08 M. The EC50 was 3.98e-07 M with ZR-75-1 cells, 4.4e-07 M with LCLC97TM1 and greater than 2e-05 M in the test on MDA-MB-436 cells.
Taken in the same sequence, the figures for `COc1ccc(C2=CCOCC2)cc1S(=O)(=O)NC(=O)c1cc2c(F)cc(N3CCC3)cc2o1` [Example 196, 6-(azetidin-1-yl)-N-[5-(3,6-dihydro-2H-pyran-4-yl)-2-methoxybenzene-1-sulfonyl]-4-fluoro-1-benzofuran-2-carboxamide] were 0.00825 µM, 4.72e-08 M, 1.44e-07 M, 8.1e-07 M and greater than 2e-05 M.
Taken in the same sequence, the figures for `Cc1cc2c(c(S(=O)(=O)NC(=O)c3cc4c(F)cc(N5CCC5)cc4o3)c1C)OC(C)(C)C2` [Example 204, 6-(Azetidin-1-yl)-4-fluoro-N-(2,2,5,6-tetramethyl-2,3-dihydro-1-benzofuran-7-sulfonyl)-1-benzofuran-2-carboxamide] were 0.0077 µM, 1.79e-07 M, 3.4e-07 M, 8.36e-07 M and 1.6e-06 M.
Taken in the same sequence, the figures for `C=C(C)c1ccc(OC)c(S(=O)(=O)NC(=O)c2cc3c(F)cc(N4CCC4)cc3o2)c1` [Example 205, 6-(Azetidin-1-yl)-4-fluoro-N-[2-methoxy-5-(prop-1-en-2-yl)benzene-1-sulfonyl]-1-benzofuran-2-carboxamide] were 0.00797 µM, 7.15e-08 M, 1.73e-07 M, 9.37e-07 M and greater than 2e-05 M.
Take `CCOc1ccc(C(F)(F)F)cc1S(=O)(=O)NC(=O)c1cc2c(F)cc(N3CCC3)cc2o1` [Example 209, 6-(azetidin-1-yl)-N-[2-ethoxy-5-(trifluoromethyl)phenyl]sulfonyl-4-fluoro-benzofuran-2-carboxamide]: the IC50 in test [1] turned out to be 0.0265 µM; in test [2], 5.86e-08 M. Besides, the EC50 was 4.59e-08 M with ZR-75-1 cells, 6.32e-07 M in the test with LCLC97TM1 and greater than 2e-05 M with MDA-MB-436 cells.
Take `CC(C)c1ccc(OCC(F)(F)F)c(S(=O)(=O)NC(=O)c2cc3c(F)cc(N4CCC4)cc3o2)c1` [Example 215, 6-(azetidin-1-yl)-4-fluoro-N-[5-isopropyl-2-(2,2,2-trifluoroethoxy)phenyl]sulfonyl-benzofuran-2-carboxamide]: the IC50 in test [1] came out at 0.00718 µM; in test [2] it was 7.43e-08 M. Besides, the results for the EC50 with ZR-75-1 cells, with LCLC97TM1 and in the test on MDA-MB-436 cells were 5.82e-07 M, 2.83e-06 M and greater than 2e-05 M, respectively.

The values above are taken from patent publication US20240279207A1, “SUBSTITUTED ACYL SULFONAMIDES FOR TREATING CANCER” (The Broad Institute, Inc., priority 2020, published 2024).
